Reference: US6818203B2, “Use of perfluoroalkyl-containing metal complexes as contrast media in MR-imaging for visualization of plaque, tumors and necroses” (Schering Aktiengesellschaft, priority 2000, dated 2004)

Legend:
[1] = organ distribution (including tumor and lymph node concentration) after intravenous administration in prostate cancer-bearing rats; assay type: in vivo; conditions: 200 μmol Gd/kg i.v.
Description: After intravenous administration of 200 μmol of total gadolinium/kg of body weight of a polar Gd-chelate with perfluorinated side chains (metal complex XIV) in rats (Cop-inbreeding with Dunning R3327 MAT-Lu prostate cancer i.m.-implanted 12 days earlier), the metal content in various organs, in tumors, as well as in the lymph nodes (pooled as mesenteric and peripheral lymph nodes) was determined 10 minutes, 1 hour and 24 hours after administration (MW±SD, n=3).

[2] = proton relaxivity in plasma (R^1), Minispec P 20; assay type: physicochemical; conditions: 40° C., 0.47 tesla, bovine plasma
Summary of the method: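 Measured at 40° C. and 0.47 tesla in bovine plasma, with contrast medium at 0.30–1.16 mmol/l. T1 obtained by inversion recovery (180°-TI-90°) over eight measuring points per sequence; relaxivity given in l/mmol·s.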

myocardial infarction = experiment: infarction visualization (MRT) after intravenous administration in rats with acutely induced myocardial infarction; assay type: in vivo; conditions: 3 hours after i.v. 100 μmol of Gd/kg
From the text: The successful induction of an acute myocardial infarction was confirmed by means of NBT-staining.

[3] = critical micelle formation concentration (CMC) by tensiometry; assay type: physicochemical
Summary of the method: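 Surface tension of aqueous solutions was measured by tensiometry across a range of compound concentrations. CMC (mol/l) was calculated from the resulting surface-tension-versus-concentration plot.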

[4] = tested on: iliac and inguinal lymph nodes; experiment: lymph node visualization (MRT) after intravenous administration in guinea pigs with stimulated lymph nodes; assay type: in vivo; conditions: 200 μmol of Gd/kg i.v.
Description: By way of example, the pictures in FIG. 14 show MR images of iliac and inguinal lymph nodes precontrast and up to 24 hours after intravenous administration of 200 μmol of Gd/kg of body weight of metal complex XIV in guinea pigs with stimulated lymph nodes (Freund adjuvant). […] The enhancement was 127% at the time of 60 minutes p.i.

[5] = Mesentric lymph nodes, 24 h p.i.
[6] = Peripheral lymph nodes, 10 min p.i.
[7] = Peripheral lymph nodes, 1 h p.i.
[8] = Peripheral lymph nodes, 24 h p.i.
[9] = The remainder of the body, 10 min p.i.
[10] = The remainder of the body, 1 h p.i.
[11] = The remainder of the body, 24 h p.i.

## CC(C(=O)NCC(=O)NCC(=O)N1CCN(C(=O)CNC(=O)CNC(=O)C(C)N2CCN(CC(=O)[O-])CCN(CC(=O)[O-])CCN(CC(=O)[O-])CC2)CCN(C(=O)COCCC(F)(F)C(F)(F)C(F)(F)C(F)(F)C(F)(F)C(F)(F)C(F)(F)C(F)(F)F)CCN(C(=O)CNC(=O)CNC(=O)C(C)N2CCN(CC(=O)[O-])CCN(CC(=O)[O-])CCN(CC(=O)[O-])CC2)CC1)N1CCN(CC(=O)[O-])CCN(CC(=O)[O-])CCN(CC(=O)[O-])CC1.[Gd+3].[Gd+3].[Gd+3] (stereo not shown) [metal complex XIV, 1,4,7-Tris{1,4,7-tris(N-(carboxylatomethyl)-10-[N-1-methyl-3,6-diaza-2,5,8-trioxooctane-1,8-diyl]-1,4,7,10-tetraazacyclododecane, Gdcomplex}-10-N-2H,2H,4H,4H,5H,5H-3-oxa-perfluoro-tridecanoyl]-1,4,7,10-tetraazacyclo-dodecane, Gd complex]
[1]; Mesentric lymph nodes, 1 h p.i.
  Gd concentration: 179 ± 16 µmol/L
[1]; [5]
  % Dose: 0.02 ± 0.00 % Dose
  Gd concentration: 50 ± 6 µmol/L
[1]; Muscle, 10 min p.i.
  % Dose: 0.06 ± 0.02 % Dose
  Gd concentration: 93 ± 5 µmol/L
[1]; Muscle, 1 h p.i.
  % Dose: 0.04 ± 0.00 % Dose
  Gd concentration: 56 ± 3 µmol/L
[1]; Muscle, 24 h p.i.
  % Dose: 0.00 ± 0.00 % Dose
  Gd concentration: 8 ± 1 µmol/L
[1]; Pancreas, 10 min p.i.
  % Dose: 0.35 ± 0.02 % Dose
  Gd concentration: 191 ± 14 µmol/L
[1]; Pancreas, 1 h p.i.
  % Dose: 0.21 ± 0.05 % Dose
  Gd concentration: 139 ± 26 µmol/L
[1]; Pancreas, 24 h p.i.
  % Dose: 0.03 ± 0.01 % Dose
  Gd concentration: 25 ± 1 µmol/L
[1]; [6]
  % Dose: 0.13 ± 0.00 % Dose
  Gd concentration: 284 ± 19 µmol/L
[1]; [7]
  % Dose: 0.14 ± 0.02 % Dose
  Gd concentration: 254 ± 14 µmol/L
[1]; [8]
  % Dose: 0.02 ± 0.00 % Dose
  Gd concentration: 51 ± 5 µmol/L
[1]; Spleen, 10 min p.i.
  % Dose: 0.13 ± 0.01 % Dose
  Gd concentration: 200 ± 13 µmol/L
[1]; Spleen, 1 h p.i.
  % Dose: 0.08 ± 0.01 % Dose
  Gd concentration: 123 ± 10 µmol/L
[1]; Spleen, 24 h p.i.
  % Dose: 0.06 ± 0.00 % Dose
  Gd concentration: 69 ± 5 µmol/L
[1]; Stomach (empty), 10 min p.i.
  % Dose: 0.56 ± 0.07 % Dose
  Gd concentration: 244 ± 17 µmol/L
[1]; Stomach (empty), 1 h p.i.
  % Dose: 0.40 ± 0.05 % Dose
  Gd concentration: 165 ± 21 µmol/L
[1]; Stomach (empty), 24 h p.i.
  % Dose: 0.05 ± 0.00 % Dose
  Gd concentration: 19 ± 2 µmol/L
[1]; Sum of the organs, 10 min p.i.
  % Dose: 80.06 ± 2.84 % Dose
[1]; Sum of the organs, 1 h p.i.
  % Dose: 72.94 ± 5.83 % Dose
[1]; Sum of the organs, 24 h p.i.
  % Dose: 9.21 ± 0.27 % Dose
[1]; [9]
  % Dose: 70.71 ± 2.74 % Dose
  Gd concentration: 419 ± 27 µmol/L
[1]; [10]
  % Dose: 64.27 ± 5.50 % Dose
  Gd concentration: 392 ± 25 µmol/L
[1]; [11]
  % Dose: 6.81 ± 0.16 % Dose
  Gd concentration: 42 ± 0 µmol/L
[1]; Tumor, 10 min p.i.
  % Dose: 0.25 ± 0.05 % Dose
  Gd concentration: 246 ± 25 µmol/L
[1]; Tumor, 1 h p.i.
  % Dose: 0.37 ± 0.14 % Dose
  Gd concentration: 266 ± 87 µmol/L
[1]; Tumor, 24 h p.i.
  % Dose: 0.04 ± 0.01 % Dose
  Gd concentration: 56 ± 4 µmol/L
[1]; Urine 0-24 h
  % Dose: 79.86 ± 3.13 % Dose
  Gd concentration: 619 ± 19 µmol/L
[2]
  R^1 Plasma (relaxivity): 19.5 mmol⁻¹ s⁻¹
Myocardial infarction
  signal in the infarction area (T1-weighted spin-echo images): strong signal rise
[3]
  CMC (critical micelle formation concentration): 0.00089 mol/L
[4]; 60 minutes p.i.
  enhancement in lymph node tissue: 127%
[4]; very shortly after injection
  signal in healthy lymph node tissue (T1-weighted gradient-echo images): strong signal rise
